Results on one compound are retold here after US20220050094A1, “Application of the apparent volume of distribution in extraction technologies and pharmacokinetics” (priority 2020, published 2022).

The series in a line: clinical. The settings on record: human, in vivo. From the text: We claim that these volumes represent the physiological volumes of extracellular fluid compartments that receive the drug with different kinetic rates. Total exclusion of the drug from intracellular fluids is most plausible considering the highly polar and hydrophilic nature of sisomicin. Alternatively, the peripheral compartment could be considered to be interstitial fluid as a different phase of slightly higher drug affinity, where steric hindrance and binding to the negatively charged components of the extracellular matrix retards drug movement. […] The explicit solutions to the two-compartment model as a function of real time provide estimates of drug concentration upon repeated dosing (U.S. patent application Ser. No. 16/992,658). These drug concentrations at momentary distribution equilibrium (teq) can be used to determine the drug's apparent volume of distribution.
Eq. 21, can be used to assess a substance apparent volume of distribution associated with the phase of the central compartment, but only if the central compartment is a single phase. Using eq. 21, Vd,1 was calculated to be equal to 11.78 L. The equilibrium time of intercompartmental drug distribution teq is calculated from eq.
Eur J Clin Pharmacol. 1976; 10: 251-256. […]

With `CN[C@@H]1[C@@H](O)[C@@H](O[C@@H]2[C@@H](O)[C@H](O[C@H]3OC(CN)=CC[C@H]3N)[C@@H](N)C[C@H]2N)OC[C@]1(C)O` [sisomicin], the Vd was determined as 11.8 L.

By Vd is commonly meant a proportionality between amount in the body and measured concentration, not a real space. High values mean extensive tissue distribution, low ones confinement near the circulation.
